These results are taken from patent publication US20230190844A1, “COMPOSITION AND METHOD FOR TREATING CANCER WITH CANNABINOIDS” (CANNABICS PHARMACEUTICALS INC., priority 2020, published 2023).

The subject of data set [1] is HT-29 colon cancer cells. In words: CellTiter-Glo (CTG) cell viability, HT-29. Type of data set: cell-based, human. The following applies: CBDV 23.5 μM, CBGA 25.6 μM, THC-d8 17.5 μM; 48 hours; FIGS. 1A-1B. As for the experimental part: The colon cancer cell line HT-29 was exposed to each of CBDV (at a concentration of 23.5 μM) and CBGA (at a concentration of 25.6 μM) alone, and a combination thereof and to each of CBGA (at a concentration of 25.6 μM) and THC-d8 (at a concentration of 17.5 μM) alone, and a combination thereof at 37° C. for 48 hours. The viability of the tested cells was examined. The following Tables 4 and 5 illustrate the obtained results (shown also graphically at FIGS. 1A and 1B).

In data set [2] the test system is A549 lung cancer cells. In words: CellTiter-Glo (CTG) cell viability, A549. The following applies: CBDV 23.5 μM, CBGA 25.6 μM, CBDVA 25.6 μM, THC-d8 17.5 μM; 48 hours; FIGS. 2A-2B. The format is cell-based. Here is the method: The lung cancer cell line A549 was exposed to each of CBDV (at a concentration of 23.5 μM) and CBGA (at a concentration of 25.6 μM) alone, and a combination thereof at 37° C. for 48 hours. The viability of the tested cells was examined. The following Table 6 illustrates the obtained results (shown also graphically in FIGS. 2A-2B).

Data set [3] deals with MCF-7 breast cancer cells. In words: CellTiter-Glo (CTG) cell viability, MCF-7. The format is cell-based. The note with it: CBDV 23.5 μM, CBGA 20 μM, CBDVA 17.5 μM, THC-d8 17.5 μM; 48 hours; FIGS. 3A-3B. As for the experimental part: The breast cancer cell line MCF-7 was exposed to each of CBDV (at a concentration of 23.5 μM) and CBGA (at a concentration of 20 μM) alone, and to a combination thereof at 37° C. for 48 hours. The viability of the tested cells was examined. The following Table 8 illustrates the obtained results (shown also graphically in FIGS. 3A-3B).
On the technique in general: ATP-based viability assays read luminescence as a measure of living cells.

In data set [4] the test system is HCT116 cells. The experiment in a line: CellTiter-Glo (CTG) cell viability, HCT-116. As for the experimental part:
(§1) The colon cancer cell lines RKO, and HCT116 were exposed to various cannabinoid combinations, at 37° C. for 48 h. The viability of the tested cells was examined. Further, synergism was evaluated using the Bliss equation.
(§2) CBDV and CBGA were tested at concentrations of 46.9 μM and 51.2 μM, respectively (shown as X2 in FIGS. 4A-4B). The effect of contacting each cannabinoid on the cells at half the concentration (i.e., 23.4 μM and 25.6 μM for CBDV and CBGA, respectively) was further tested (shown as X1 in FIGS. 4A-4B). Mixtures of CBDV and CBGA each at a X1 concentration were further prepared (“low concentration solutions”). The effect of the low concentration solution on the viability of the cancer cells was tested. The testing of the effect of each solution on the cancer cells was determined by incubating the cells with each cannabinoid solution as well as a standard (control) comprising DMSO only at 37° C. for 48 h and cell viability was measured by CTG viability assay using a Varioskan™ LUX multimode microplate reader.
(§3) FIGS. 7A-7B illustrate the human colon cell lines (HCT116 and RKO) that were incubated with CBGA at a concentration of 35 μM, CBDV at a concentration of 25 μM, Capecitabine at a concentration of 250 μM, and a combination thereof.

In data set [5] the test system is RKO cells. The experiment in a line: CellTiter-Glo (CTG) cell viability, RKO. As for the experimental part:
as §1, §2, §3

In data set [6] the test system is CT26 cells. In words: Cell viability at varying CBGA:CBDV ratios, CT26. The note with it: Mus musculus, CT26, read-out: % Cells Viability.
Method: (§4) Human colon cell lines (SC-CO1, RKO, and HCT116) and a murine cell line (CT26) were incubated with varying molar ratios between CBGA and CBDV of 1:3.5 to 8.5:1. Cells' viability and corresponding synergy rankings were determined.
The test system of data set [7] is SK-CO1 cells. In words: Cell viability at varying CBGA:CBDV ratios, SK-CO1. The following applies: Homo sapiens, SK-CO-1, read-out: % Cells Viability.
Method: as §4
The subject of data set [8] is cells of human colon cancer biopsy. The experiment in a line: Cell viability of human colon cancer biopsies. Type of data set: cell-based. The note with it: CBDV 23.5 μM, CBG 20 μM, alone or combined. Here is the method: The anti-tumor effect of combinations of cannabinoids CBCA, CBDV, CBDVA, THCV and CBGA on human colon cancer biopsies was tested. […] The obtained cell viability inhibition produced synergistic effects.
Table 18 illustrates (shown also graphically at FIG. 5A) the synergistic anti-tumor effect of a combination of the cannabinoids THCV (at a concentration of 24 μM) and CBCA (at a concentration of 14.5 μM) on colon cancer biopsies.
FIG. 6 illustrates graphically the combination of CBGA and CBDV on colon cancer biopsies taken from a patient. The concentration of each component was: CBGA (X2-51.2 μM), CBGA (X1-25.6 μM), CBDV (X2-47 μM), […].

The mark [9] stands for this setting: Homo sapiens, HCT-116, read-out: % Cells Viability.
Setting [10] is: Homo sapiens, RKO, read-out: % Cells Viability.

With `C=C(C)[C@H]1CCC(C)=C[C@@H]1c1c(O)cc(CCC)cc1O` [CBDV, 2-((1S,6S)-3-methyl-6-(prop-1-en-2-yl)cyclohex-2-enyl)-5-propylbenzene-1,3-diol], the “growth inhibition / anti-cancer effect in words” value in data set [1] was “slight growth inhibition effect”. In data set [2], the “growth inhibition / anti-cancer effect in words” value is “slight growth inhibition effect”. In data set [3], the “growth inhibition / anti-cancer effect in words” value is listed as “slight growth inhibition effect”. In data set [4] (Homo sapiens, HCT-116, 48 h), the viability (as a rule, a read-out of living cells in per cent, often relative to untreated cells) at 23.4 µM turned out to be 94% and the viability at 46.9 µM is 64%. For the same molecule, in data set [4] (setting [9]), the viability at 5 µM came to 113%, the viability at 10 µM is 109%, the viability at 15 µM turned out to be 101% and the viability at 25 µM was determined as 84%. In addition, in data set [4] (setting [9]), the viability at 30 µM came to 71% and the viability at 35 µM came out at 64%. For the same molecule, in data set [5] (Homo sapiens, RKO, 48 h), the viability at 23.4 µM came out at 92% and the viability at 46.9 µM turned out to be 38%. Further, in data set [5] (setting [10]), the viability at 5 µM amounted to 112%, the viability at 10 µM came to 108%, the viability at 15 µM came out at 88% and the viability at 25 µM stood at 62%. In data set [5] (setting [10]), the viability at 30 µM came out at 53% and the viability at 35 µM stood at 48%. In addition, in data set [6], the viability at 5 µM worked out at 108%, the viability at 10 µM amounted to 109%, the viability at 15 µM turned out to be 113% and the viability at 25 µM was 108%. In data set [6], the viability at 30 µM turned out to be 99% and the viability at 35 µM was found to be 90%. Also, in data set [7], the viability at 5 µM stood at 104%, the viability at 10 µM was 103%, the viability at 15 µM stood at 99% and the viability at 25 µM was 99%. For the same molecule, in data set [7], the viability at 30 µM was 97% and the viability at 35 µM was found to be 96%.
On to `CCCCCc1cc(O)c(C/C=C(\C)CCC=C(C)C)c(O)c1C(=O)O` [CBGA, 3-[(2E)-3,7-dimethylocta-2,6-dienyl]-2,4-dihydroxy-6-pentylbenzoic acid], for which, in data set [1], the “growth inhibition / anti-cancer effect in words” value is recorded as “slight growth inhibition effect”. In addition, the “growth inhibition / anti-cancer effect in words” value in data set [2] is on record as “slight growth inhibition effect”. Further, the “growth inhibition / anti-cancer effect in words” value in data set [3] is recorded as “slight growth inhibition effect”. Besides, in data set [4] (Homo sapiens, HCT-116, 48 h), the viability at 25.6 µM was found to be 105% and the viability at 51.2 µM worked out at 84%. In addition, in data set [4] (setting [9]), the viability at 10 µM was 115%, the viability at 15 µM was found to be 112%, the viability at 25 µM turned out to be 104% and the viability at 30 µM is 97%. Besides, in data set [4] (setting [9]), the viability at 35 µM was found to be 90% and the viability at 42.5 µM was 72%. Besides, in data set [5] (Homo sapiens, RKO, 48 h), the viability at 25.6 µM is 103% and the viability at 51.2 µM turned out to be 53%. In data set [5] (setting [10]), the viability at 10 µM stood at 119%, the viability at 15 µM stood at 119%, the viability at 25 µM was 94% and the viability at 30 µM is 75%. In data set [5] (setting [10]), the viability at 35 µM turned out to be 59% and the viability at 42.5 µM turned out to be 41%. For the same molecule, in data set [6], the viability at 10 µM came to 102%, the viability at 15 µM was determined as 102%, the viability at 25 µM turned out to be 46% and the viability at 30 µM is 22%. In data set [6], the viability at 35 µM turned out to be 21% and the viability at 42.5 µM stood at 11%. Moreover, in data set [7], the viability at 10 µM turned out to be 108%, the viability at 15 µM came to 110%, the viability at 25 µM was 101% and the viability at 30 µM is 91%. In data set [7], the viability at 35 µM came out at 76% and the viability at 42.5 µM was found to be 52%.
In the case of `CCCCCc1cc(O)c(C/C=C(\C)CCC=C(C)C)c(O)c1` [CBG], the Viability in data set [8] amounted to 84.
Consider `CCCCCOC(=O)Nc1nc(=O)n([C@@H]2O[C@H](C)[C@@H](O)[C@H]2O)cc1F` [Capecitabine, reference compound], for which the “anti-cancer / toxicity effect on the cells in words” value in data set [4] (FIG. 7A, CBGA 35 μM, CBDV 25 μM, Capecitabine 250 μM) is “no toxicity effect”; in data set [5] (FIG. 7B, CBGA 35 μM, CBDV 25 μM, Capecitabine 250 μM), “no toxicity effect”.
